From patent US5624923A, “Tricyclic diazepine vasopressin antagonists and oxytocin antagonists” (priority 1995, dated 1997)

Key:
[1] = target: T1, Human V2 Vasopressin Receptor (Homo sapiens, UniProt P30518); experiment: Binding to Membranes of Mouse Fibroblast Cell Line (LV-2) Transfected with the cDNA Expressing the Human V2 Vasopressin Receptor; conditions: human V2; for IC50: LV-2 cell membranes, read-out: V2 IC50 (**)
T1 construct: expressed in transfected cells; host or cells: mouse fibroblast cell line LV-2
Experimental: Binding to Membranes of Mouse Fibroblast Cell Line (LV-2) Transfected with the cDNA Expressing the Human V2 Vasopressin Receptor
Flasks of 175 ml capacity, containing attached cells grown to confluence, are cleared of culture medium by aspiration. The flasks containing the attached cells are rinsed with 2×5 ml of phosphate buffered saline (PBS) and the liquid aspirated off each time. Finally, 5 ml of an enzyme free dissociation Hank's based solution (Specialty Media, Inc., Lafayette, N.J.) is added and the flasks are left undisturbed for 2 min. The content of all flasks is. poured into a centrifuge tube and the cells pelleted at 300× g for 15 min. The Hank's based solution is aspirated off and the cells homogenized with a polytron at setting #6 for 10 sec in 10.0 mM Tris.HCl buffer, pH 7.4 containing 0.25M sucrose and 1.0 mM EDTA. The homogenate is centrifuged at 1500× g for 10 min to remove ghost membranes. The supernatant fluid is centrifuged at 100,000× g for 60 min. to pellet the receptor protein. Upon completion, the pellet is resuspended in a small volume of 50.0 mM Tris. HCl buffer, pH 7.4. The protein content is determined by the Lowry method and the receptor membranes are suspended in 50.0 mM Tris.HCl buffer containing 0.1 mM phenylmethylsulfonylfluoride (PMSF) and 0.2% bovine serum albumin (BSA) to give 2.5 mg receptor protein per ml of suspension.
Arginine^8, vasopressin (S.A. 75.0 Ci/mmole) at 0.8 nM and the reaction initiated by the addition of 80.0 μl of tissue membranes (200.0 μg tissue protein). The plates are left undisturbed on the bench top for 120 min to reach equilibrium. Non specific binding is assessed in the presence of 1.0 μM of unlabeled ligand, added in 20 μl volume. For test compounds, these are solubilized in 50% dimethylsulfoxide (DMSO) and added in 20.0 μl volume to a final incubation volume of 200 μl. Upon completion of binding, the content of each well is filtered off, using a Brandel® cell Harvester (Gaithersburg, Md.). The radioactivity trapped on the filter disk by the ligand-receptor complex is assessed by liquid scintillation counting in a Packard LS Counter, with an efficiency of 65% for tritium. The data are analyzed for IC50 values by the LUNDON-2 program for competition (LUNDON SOFTWARE, Ohio).

[2] = target: T2, V1 Receptor Subtype in Human Platelet (Homo sapiens, UniProt P37288); experiment: Binding to Vasopressin V1 receptor subtype in Human Platelet Membranes; conditions: for IC50: human platelet membranes; for inhibition at 1 µM: 1.5 h, human platelet
T2 construct: tissue Hudson Valley Blood Services, Westchester Medical Center, Valhalla, N.Y; host or cells: human platelets (frozen platelet rich plasma)
Experimental: Radioligand Binding Experiments with Human Platelet Membranes (a) Platelet Membrane Preparation: Frozen platelet rich plasma (PRP), (Platelet Source: Hudson Valley Blood Services, Westchester Medical Center, Valhalla, N.Y.) are thawed to room temperature. The tubes containing the PRP are centrifuged at 16,000×g for 10 min. at 4° C. and the supernatant fluid discarded. […] The suspension is recentrifuged at 16,000× g for 10 min. This washing step is repeated one more time. The wash discarded and the lysed pellets homogenized in low ionic strength buffer of Tris.HCl, 5.0 mM, pH 7.5 containing 5.0 mM EDTA. The homogenate is centrifuged at 39,000× g for 10 min. The resulting pellet is resuspended in Tris. […] The final pellet is resuspended in 50.0 mM Tris. HCl buffer pH 7.4 containing 120 mM NaCl and 5.0 mM KCl to give 1.0-2.0 mg protein per ml of suspension. […] Platelet Membranes […] Then add 20 μl of [^3 H]Ligand (Manning or […] Vasopressin), to give final concentrations ranging from 0.01 to 10.0 nM. Initiate the binding by adding 80.0 μl of platelet suspension (approx. 100 μg protein). Mix all reagents by pipetting the mixture up and down a few times. Non specific binding is measured in the presence of 1.0 μM of unlabeled ligand (Manning or […] Vasopressin). Let the mixture stand undisturbed at room temperature for ninety (90) min. Upon this time, rapidly filter off the incubate under vacuum suction over GF/B filters, using a Brandel Harvester. Determine the radioactivity caught on the filter disks by the addition of liquid scintillant and counting in a liquid scintillator.

[3] = test system: Vasopressin V2; experiment: Vasopressin V2 Antagonist Activity in Conscious Hydrated Rats; format: in vivo, rat; conditions: 10 mg/kg orally, AVP 0.4 μg/kg i.p.
Outline: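 Four-hour urine output, osmolality and electrolytes (Na+, K+, Cl−) recorded in water-loaded rats (30 mL/kg deionized water orally) given AVP i.p. at 0.4 μg/kg. Test compounds were given orally at 0.1–100 mg/kg 1 h before AVP; 2–4 rats per compound.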

[4] = target: T3, oxytocin receptors (Rattus norvegicus, UniProt P70536); experiment: Oxytocin Receptor Binding; conditions: for IC50: 1.0 nM [3H]oxytocin
T3 construct: The uteri are dissected out, cleaned of fat and connective tissues; from tissue; host or cells: uterus of DES-treated female Sprague-Dawley rats
T3 sequence (P70536 1-388): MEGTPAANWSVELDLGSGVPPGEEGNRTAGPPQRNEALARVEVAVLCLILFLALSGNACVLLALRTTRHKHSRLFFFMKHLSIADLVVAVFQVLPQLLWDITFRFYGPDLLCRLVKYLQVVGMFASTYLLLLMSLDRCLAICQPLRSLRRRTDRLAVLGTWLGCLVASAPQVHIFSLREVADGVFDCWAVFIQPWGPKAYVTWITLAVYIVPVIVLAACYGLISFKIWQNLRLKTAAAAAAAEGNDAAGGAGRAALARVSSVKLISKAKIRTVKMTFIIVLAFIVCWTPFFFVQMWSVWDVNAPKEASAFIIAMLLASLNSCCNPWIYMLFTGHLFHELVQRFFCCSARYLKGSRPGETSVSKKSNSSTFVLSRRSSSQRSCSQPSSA
Outline: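 Membranes from uteri of DES-primed (0.3 mg/kg i.m., 18 h) female Sprague-Dawley rats. Competition with 1.0 nM [3H]oxytocin in 50 mM Tris.HCl pH 7.4, 5 mM MgCl2 with protease inhibitors, 60 min at 22 °C, filtration read-out. Non-specific binding with 1.0 uM unlabeled OT; IC50 calculated.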

T2 sequence (P37288 whole entry): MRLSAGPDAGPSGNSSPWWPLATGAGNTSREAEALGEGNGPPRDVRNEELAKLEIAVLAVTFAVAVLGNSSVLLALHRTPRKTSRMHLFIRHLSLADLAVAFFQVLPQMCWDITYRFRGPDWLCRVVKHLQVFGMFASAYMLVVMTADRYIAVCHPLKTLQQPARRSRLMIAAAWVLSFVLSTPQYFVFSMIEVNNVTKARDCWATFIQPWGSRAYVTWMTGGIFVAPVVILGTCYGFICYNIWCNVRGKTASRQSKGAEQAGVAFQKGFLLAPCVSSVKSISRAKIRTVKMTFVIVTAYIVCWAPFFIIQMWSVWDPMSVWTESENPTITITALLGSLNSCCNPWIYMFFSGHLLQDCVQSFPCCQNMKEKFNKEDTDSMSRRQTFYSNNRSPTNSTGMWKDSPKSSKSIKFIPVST
T1 sequence (P30518 whole entry): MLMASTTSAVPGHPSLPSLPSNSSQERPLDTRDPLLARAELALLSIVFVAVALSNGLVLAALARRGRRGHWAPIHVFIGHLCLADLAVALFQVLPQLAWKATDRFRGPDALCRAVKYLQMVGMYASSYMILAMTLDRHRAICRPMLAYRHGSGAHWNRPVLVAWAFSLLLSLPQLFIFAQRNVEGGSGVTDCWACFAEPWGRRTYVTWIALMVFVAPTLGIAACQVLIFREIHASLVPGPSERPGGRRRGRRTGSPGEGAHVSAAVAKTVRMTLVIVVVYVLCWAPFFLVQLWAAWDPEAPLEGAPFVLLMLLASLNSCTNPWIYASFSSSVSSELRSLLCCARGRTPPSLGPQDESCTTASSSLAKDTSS

SMILES | IC50 [1] | IC50 [2] | other results
Cc1ccc(F)cc1C(=O)Nc1ccc(C(=O)N2Cc3ccnn3Cc3ccccc32)c(Cl)c1 [Example 518, N-[4-(4H-Pyrazolo[5,1-c][1,4]benzodiazepin-5(10H)-ylcarbonyl)-3-chlorophenyl]-5-fluoro-2-methylbenzamide] | 1.7 nM | 220 nM | Osmolality [3]: 363 mOsm/kg; Urine Volume [3]: 17.5 ml/4 hrs
O=C(Nc1ccc(C(=O)N2Cc3cccn3Cc3ccccc32)c(Cl)c1)c1ccccc1F [Example 523, N-[4-(5H-pyrrolo[2,1-c][1,4]benzodiazepin-10(11H)-ylcarbonyl)-3-chlorophenyl]-2-fluorobenzamide] | 2.8 nM | 110 nM | Osmolality [3]: 1218 mOsm/kg; Urine Volume [3]: 5 ml/4 hrs
O=C(Nc1ccc(C(=O)N2Cc3cccn3Cc3ccccc32)c(Cl)c1)c1cccc(F)c1 [Example 538, N-[4-(5H-pyrrolo[2,1-c][1,4]benzodiazepin-10(11H)-ylcarbonyl)-3-chlorophenyl]-3-fluorobenzamide] | 1 nM | 52 nM | IC50 [4]: 900 nM; inhibition at 10 µM ([4]; [3H]oxytocin): 90%
Cc1c(F)cccc1C(=O)Nc1ccc(C(=O)N2Cc3cccn3Cc3ccccc32)cc1Cl [Example 546, N-[4-(5H-pyrrolo[2,1-c][1,4]benzodiazepin-10(11H)-ylcarbonyl)-2-chlorophenyl]-3-fluoro-2-methylbenzamide] | 73 nM | 66 nM | IC50 [4]: 990 nM; inhibition at 10 µM ([4]; [3H]oxytocin): 91%
Cc1ccc(F)cc1C(=O)Nc1ccc(C(=O)N2Cc3cccn3Cc3ccccc32)cc1Cl [Example 547, N-[4-(5H-pyrrolo[2,1-c][1,4]benzodiazepin-10(11H)-ylcarbonyl)-2-chlorophenyl]-5-fluoro-2-methylbenzamide] | 4 nM | 16 nM | IC50 [4]: 260 nM; inhibition at 5 µM ([4]; dose 5 μM, [3H]oxytocin): 97%
O=C(Nc1ccc(C(=O)N2CCc3cccn3-c3ccccc32)c(Cl)c1)c1ccc(Cl)cc1Cl [Example 609, N-[4-[(6,7-Dihydro-5H-pyrrolo[1,2-a]-[1,5]benzodiazepin-5-yl)carbonyl]-3-chlorophenyl]-2,4-dichlorobenzamide] | 21 nM | 2400 nM | IC50 [4]: 2700 nM; inhibition at 10 µM ([4]; [3H]oxytocin): 66%
Cc1ccc(F)cc1C(=O)Nc1ccc(C(=O)N2Cc3ccc(CN(C)C)n3Cc3ccccc32)c(Cl)c1 [Example 668, N-[4-[[3-[(dimethylamino)methyl]-5H-pyrrolo[2,1-c][1,4]benzodiazepin-10(11H)-yl]carbonyl]-3-chlorophenyl]-5-fluoro-2-methylbenzamide] | 29 nM | 170 nM | Osmolality [3]: 378 mOsm/kg; Urine Volume [3]: 20.7 ml/4 hrs
O=C(Nc1ccc(C(=O)N2Cc3cccn3Cc3ccccc32)c(Cl)c1)c1ccc(C(F)(F)F)cc1F [Example 696, N-[4-(5H-pyrrolo[2,1-c][1,4]benzodiazepin-10(11H)-ylcarbonyl)-3-chloro-phenyl]-2-fluoro-4-(trifluoromethyl)benzamide] | 65 nM | 12400 nM | 
Cc1ccccc1CC(=O)Nc1ccc(C(=O)N2Cc3cccn3Cc3ccccc32)c(Cl)c1 [Example 697, N-[4-(5H-pyrrolo[2,1-c][1,4]benzodiazepin-10(11H)-ylcarbonyl)-3-chloro-phenyl]-2-methylbenzeneacetamide] | 3 nM | 620 nM | 
O=C(Nc1ccc(C(=O)N2Cc3cccn3Cc3ccccc32)c(Cl)c1)c1c(F)cccc1C(F)(F)F [Example 698, N-[4-(5H-pyrrolo[2,1-c][1,4]benzodiazepin-10(11H)-ylcarbonyl)-3-chloro-phenyl]-2-fluoro-6-(trifluoromethyl)benzamide] | 13 nM | 1300 nM | 
CSc1ccc(Cl)c(C(=O)Nc2ccc(C(=O)N3Cc4cccn4Cc4ccccc43)c(Cl)c2)c1 [Example 700, N-[4-(5H-pyrrolo[2,1-c][1,4]benzodiazepin-10(11H)-ylcarbonyl)-3-chloro-phenyl]-2-chloro-5-(methylthio)benzamide] |  |  | inhibition at 10 µM ([1]; 10 μM): 100%; inhibition at 1 µM [2]: 77%
COc1ccc(C(=O)Nc2ccc(C(=O)N3Cc4cccn4Cc4ccccc43)c(Cl)c2)c(Cl)c1OC [Example 702, N-[4-(5H-pyrrolo[2,1-c][1,4]benzodiazepin-10(11H)-ylcarbonyl)-3-chloro-phenyl]-2-chloro-3,4-dimethoxybenzamide] |  |  | inhibition at 1 µM [1]: 85%; inhibition at 1 µM [2]: 9%
COc1cc(NC(=O)c2ccccc2C)c(Cl)cc1C(=O)N1Cc2cccn2Cc2ccccc21 [Example 703, N-[4-(5H-pyrrolo[2,1-c][1,4]benzodiazepin-10(11H)-ylcarbonyl)-6-chloro-3-methoxyphenyl]-2-methylbenzamide] |  |  | inhibition at 1 µM [1]: 87%; inhibition at 1 µM [2]: 35%
COc1cc(C(=O)N2Cc3cccn3Cc3ccccc32)ccc1NC(=O)c1cc(C)ccc1C [Example 704, N-[4-(5H-pyrrolo[2,1-c][1,4]benzodiazepin-10(11H)-ylcarbonyl)-2-methoxyphenyl]-2,5-dimethylbenzamide] |  |  | inhibition at 1 µM [1]: 92%; inhibition at 1 µM [2]: 100%
O=C(Nc1ccc(C(=O)N2Cc3cccn3Cc3ccccc32)c(Cl)c1)c1ccc(F)cc1C(F)(F)F [Example 707, N-[4-(5H-pyrrolo[2,1-c][1,4]benzodiazepin-10(11H)-ylcarbonyl)-3-chlorophenyl]-2-(trifluoromethyl)-4-fluorobenzamide] | 6 nM | 200 nM | 
CC(C)COC(=O)Nc1ccc(C(=O)N2Cc3cccn3Cc3ccccc32)cc1 [Example 714] | 41 nM | 23 nM | 
CCCCC(=O)Nc1ccc(C(=O)N2Cc3cccn3Cc3ccccc32)cc1 [Example 715] | 73 nM | 7.8 nM | 
COc1cc(C(=O)N2Cc3cccn3Cc3ccccc32)ccc1NC(=O)CC(C)C [Example 716] | 31 nM | 2 nM | 
